Experimental data reported in patent US20260199497A1, “GLUCOCORTICOID RECEPTOR AGONIST AND CONJUGATE THEREOF” (priority 2023, published 2026).

Experiments:
[1] = target: T1, glucocorticoid receptor (Homo sapiens, UniProt P04150); assay: GRE reporter gene test (Experiment Example 2), HEK293T cells transfected with pGL4.35 and p-Bind GR Vector; format: cell-based; conditions: for EC50: GRE reporter gene, HEK293T cells, 18-20 h incubation; for Emax: HEK-293T; for maximum agonistic activity (Emax): compared with dexamethasone, transfected HEK293T cells
T1 sequence (P04150 524-777 limits assumed): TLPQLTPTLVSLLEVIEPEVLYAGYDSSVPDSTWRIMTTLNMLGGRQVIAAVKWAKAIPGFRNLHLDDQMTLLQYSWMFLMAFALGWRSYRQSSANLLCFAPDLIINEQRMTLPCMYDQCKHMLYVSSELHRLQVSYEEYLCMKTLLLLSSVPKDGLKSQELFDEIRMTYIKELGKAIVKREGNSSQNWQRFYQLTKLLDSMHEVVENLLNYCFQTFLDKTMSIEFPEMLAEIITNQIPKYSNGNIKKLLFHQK
Description: The compound of the present invention to be tested was formulated into a 1 mM solution with DMSO, and then subjected to 4-fold dilution at 10 concentration points using DMSO to obtain a 1000× mother liquor, with a final test concentration of 0.0000038-1 μM.
(§1) HEK293T cells (ATCC) were plated in a 100 mm culture dish at a density of 6*10^6 cells/culture dish, and cultured for 16 h under the conditions of 37° C. and 5% CO2. Plasmids (pGL4.35 [luc2P/9XGAL4 UAS/Hygro], p-Bind GR Vector, Promega) and Lipofectamine® 3000 (Invitrogen) were mixed, added into the culture dish, and then incubated for 5-6 h under the conditions of 37° C. and 5% CO2.
In a 384-well plate (PerkinElmer), 25 nL of the compound mother liquor was added, and then HEK293T cells transfected with plasmids were added at a density of 18000 cells/well (25 μL). The cells were incubated for 18-20 h under the conditions of 37° C. and 5% CO2.
After the incubation was ended, 25 μL of britelite plus luciferase assay reagent (PerkinElmer) was added, and then reading was performed using an Envision 2105 multimode reader (PerkinElmer).
(§2) The activity was calculated using the following formula, % activity=100*(signal of compound well−average signal of negative control well)/(average signal of positive control well−average signal of negative control well). […] Fitting calculation of EC50 was performed on % activity and the logarithmic concentration of the compound using Graphpad 8.0, Y=Bottom+(Top−Bottom)/(1+10^((Log EC50−X)*HillSlope)), wherein Y is % activity, and X is the logarithmic concentration of the compound.

[2] = target: T1, glucocorticoid receptor; assay: GRE reporter gene test (Experiment Example 1), HEK293T cells transfected with pGL4.35 and p-Bind GR Vector; format: cell-based; conditions: for EC50: GRE reporter gene, HEK293T cells, 18-20 h incubation; for Emax: HEK-293T, read-out: Emax; for maximum agonistic effect (Emax): compared with dexamethasone, transfected HEK293T cells
Description: The compound of the present invention to be tested was formulated into a 10 mM solution with DMSO, and then subjected to 4-fold dilution at 10 concentration points using DMSO to obtain a 1000× mother liquor, with a final test concentration of 0.000038-10 μM.
as §1
In a 384-well plate (PerkinElmer), 25 nL of the compound mother liquor was added, and then HEK293T cells transfected with plasmids were added at a density of 18000 cells/well. The cells were incubated for 18-20 h under the conditions of 37° C. and 5% CO2.
After the incubation was ended, 25 μL of britelite plus luciferase assay reagent (PerkinElmer) was added, and then reading was performed using an Envision 2105 multiplate reader (PerkinElmer).
as §2

Structure (SMILES)	EC50 [1] [pM]	Emax [1] [%]	EC50 [2] [pM]	Emax [2] [%]	maximum agonistic effect (Emax) [2]	maximum agonistic activity (Emax) [1]
C[C@]12C=CC(=O)C=C1CC[C@H]1[C@@H]3CC[C@](OC(=O)c4ccc(F)c(N)c4)(C(=O)SCF)[C@@]3(C)C[C@H](O)[C@@]12F [A-2]	1700	93.7	–	–	–	–
C[C@@H]1C[C@H]2[C@@H]3C[C@H](F)C4=CC(=O)C=C[C@]4(C)[C@@]3(F)[C@@H](O)C[C@]2(C)[C@@]1(OC(=O)c1cccc(O)c1)C(=O)SCF [B-1]	–	–	190	105	superior to dexamethasone	–
C[C@@H]1C[C@H]2[C@@H]3C[C@H](F)C4=CC(=O)C=C[C@]4(C)[C@@]3(F)[C@@H](O)C[C@]2(C)[C@@]1(OC(=O)c1ccc(O)cc1)C(=O)SCF [B-13]	–	–	270	100	–	–
C[C@@H]1C[C@H]2[C@@H]3C[C@H](F)C4=CC(=O)C=C[C@]4(C)[C@@]3(F)[C@@H](O)C[C@]2(C)[C@@]1(OC(=O)c1ccccc1O)C(=O)SCF [B-25]	–	–	130	85.6	–	–
C[C@@H]1C[C@H]2[C@@H]3C[C@H](F)C4=CC(=O)C=C[C@]4(C)[C@@]3(F)[C@@H](O)C[C@]2(C)[C@@]1(OC(=O)c1ccc(CO)cc1)C(=O)SCF [B-31, (6S,8S,9R,10S,11S,13S,14S,16R,17R)-6,9-difluoro-17-(((fluoromethyl)thio)carbonyl)-11-hydroxy-10,13,16-trimethyl-3-oxo-6,7,8,9,10,11,12,13,14,15,16,17-dodecahydro-3H-cyclopenta[a]phenanthren-17-yl 4-(hydroxymethyl)benzoate]	320	92.5	–	–	–	–
C[C@@H]1C[C@H]2[C@@H]3C[C@H](F)C4=CC(=O)C=C[C@]4(C)[C@@]3(F)[C@@H](O)C[C@]2(C)[C@@]1(OC(=O)c1cccc(CO)c1)C(=O)SCF [B-35, (6S,8S,9R,10S,11S,13S,14S,16R,17R)-6,9-difluoro-17-(((fluoromethyl)thio)carbonyl)-11-hydroxy-10,13,16-trimethyl-3-oxo-6,7,8,9,10,11,12,13,14,15,16,17-dodecahydro-3H-cyclopenta[a]phenanthren-17-yl 3-(hydroxymethyl)benzoate]	2400	66.2	–	–	–	–
C[C@@H]1C[C@H]2[C@@H]3C[C@H](F)C4=CC(=O)C=C[C@]4(C)[C@@]3(F)[C@@H](O)C[C@]2(C)[C@@]1(OC(=O)[C@H]1C[C@@H]1c1ccc(N)cc1)C(=O)SCF [C-1]	–	–	900	102	superior to dexamethasone	–
CC(O)C(=O)O[C@]1(C(=O)SCF)[C@H](C)C[C@H]2[C@@H]3C[C@H](F)C4=CC(=O)C=C[C@]4(C)[C@@]3(F)[C@@H](O)C[C@@]21C (stereo partly drawn) [D-9]	3600	146	–	–	–	superior to dexamethasone
CC(O)CC(=O)O[C@]1(C(=O)SCF)[C@H](C)C[C@H]2[C@@H]3C[C@H](F)C4=CC(=O)C=C[C@]4(C)[C@@]3(F)[C@@H](O)C[C@@]21C (stereo partly drawn) [D-11]	800	115	–	–	–	superior to dexamethasone
C[C@@H]1C[C@H]2[C@@H]3C[C@H](F)C4=CC(=O)C=C[C@]4(C)[C@@]3(F)[C@@H](O)C[C@]2(C)[C@@]1(OC(=O)C[C@@H](C)O)C(=O)SCF [D-19, (6S,8S,9R,10S,11S,13S,14S,16R,17R)-6,9-difluoro-17-(((fluoromethyl)thio)carbonyl)-11-hydroxy-10,13,16-trimethyl-3-oxo-6,7,8,9,10,11,12,13,14,15,16,17-dodecahydro-3H-cyclopenta[a]phenanthren-17-yl (R)-3-hydroxybutyrate]	1200	120	–	–	–	superior to dexamethasone
C[C@@H]1C[C@H]2[C@@H]3C[C@H](F)C4=CC(=O)C=C[C@]4(C)[C@@]3(F)[C@@H](O)C[C@]2(C)[C@@]1(OC(=O)/C=C/c1ccc(F)c(N)c1)C(=O)SCF [E-3]	–	–	1200	97.2	–	–
C[C@]12C=CC(=O)C=C1[C@@H](F)C[C@H]1[C@@H]3CC[C@](OC(=O)/C=C/c4ccc(F)c(N)c4)(C(=O)SCF)[C@@]3(C)C[C@H](O)[C@@]12F [E-4]	1000	84.8	–	–	–	–
C[C@@H]1C[C@H]2[C@@H]3C[C@H](F)C4=CC(=O)C=C[C@]4(C)[C@@]3(F)[C@@H](O)C[C@]2(C)[C@@]1(OC(=O)c1cc(N)co1)C(=O)SCF [F-2, (6S,8S,9R,10S,11S,13S,14S,16R,17R)-6,9-difluoro-17-(((fluoromethyl)thio)carbonyl)-11-hydroxy-10,13,16-trimethyl-3-oxo-6,7,8,9,10,11,12,13,14,15,16,17-dodecahydro-3H-cyclopenta[a]phenanthren-17-yl 4-aminofuran-2-carboxylate]	–	–	1200	125	superior to dexamethasone	–
C[C@@H]1C[C@H]2[C@@H]3C[C@H](F)C4=CC(=O)C=C[C@]4(C)[C@@]3(F)[C@@H](O)C[C@]2(C)[C@@]1(OC(=O)c1cc(CO)co1)C(=O)SCF [F-9, (6S,8S,9R,10S,11S,13S,14S,16R,17R)-6,9-difluoro-17-(((fluoromethyl)thio)carbonyl)-11-hydroxy-10,13,16-trimethyl-3-oxo-6,7,8,9,10,11,12,13,14,15,16,17-dodecahydro-3H-cyclopenta[a]phenanthren-17-yl 4-(hydroxymethyl)furan-2-carboxylate]	400	134	–	–	–	superior to dexamethasone
C[C@]12C=CC(=O)C=C1[C@@H](F)C[C@H]1[C@@H]3CC[C@](OC(=O)c4cc(CO)co4)(C(=O)SCF)[C@@]3(C)C[C@H](O)[C@@]12F [F-10]	600	150	–	–	–	superior to dexamethasone
C[C@@H]1C[C@H]2[C@@H]3C[C@H](F)C4=CC(=O)C=C[C@]4(C)[C@@]3(F)[C@@H](O)C[C@]2(C)[C@@]1(OC(=O)c1ccc(CO)o1)C(=O)SCF [F-13, (6S,8S,9R,10S,11S,13S,14S,16R,17R)-6,9-difluoro-17-(((fluoromethyl)thio)carbonyl)-11-hydroxy-10,13,16-trimethyl-3-oxo-6,7,8,9,10,11,12,13,14,15,16,17-dodecahydro-3H-cyclopenta[a]phenanthren-17-yl 5-(hydroxymethyl)furan-2-carboxylate]	1300	104	–	–	–	–
C[C@@H]1C[C@H]2[C@@H]3C[C@H](F)C4=CC(=O)C=C[C@]4(C)[C@@]3(F)[C@@H](O)C[C@]2(C)[C@@]1(OC(=O)c1ccco1)C(=O)SCCO [F-21, (6S,8S,9R,10S,11S,13S,14S,16R,17R)-6,9-difluoro-11-hydroxy-17-((2-hydroxyethyl)thio)carbonyl-10,13,16-trimethyl-3-oxo-6,7,8,9,11,12,13,14,15,16,17-dodecahydro-3H-cyclopenta[a]phenanthren-17-yl furan-2-carboxylate]	1300	139	–	–	–	superior to dexamethasone
C[C@@H]1C[C@H]2[C@@H]3C[C@H](F)C4=CC(=O)C=C[C@]4(C)[C@@]3(F)[C@@H](O)C[C@]2(C)[C@@]1(OC(=O)c1ccccc1)C(=O)SCF [H-1, (6S,8S,9R,10S,11S,13S,14S,16R,17R)-6,9-difluoro-17-((fluoromethyl)thio)carbonyl)-11-hydroxy-10,13,16-trimethyl-3-oxo-6,7,8,9,10,11,12,13,14,15,16,17-dodecahydro-3H-cyclopenta[a]phenanthren-17-yl benzoate]	–	–	180	110	superior to dexamethasone	–
C[C@@H]1C[C@H]2[C@@H]3C[C@H](F)C4=CC(=O)C=C[C@]4(C)[C@@]3(F)[C@@H](O)C[C@]2(C)[C@@]1(OC(=O)c1ccc(F)cc1)C(=O)SCF [H-5]	–	–	160	107	superior to dexamethasone	–
C[C@@H]1C[C@H]2[C@@H]3C[C@H](F)C4=CC(=O)C=C[C@]4(C)[C@@]3(F)[C@@H](O)C[C@]2(C)[C@@]1(OC(=O)c1ccc(F)c(N)c1)C(=O)OCF [O-1, fluoromethyl (6S,8S,9R,10S,11S,13S,14S,16R,17R)-17-((3-amino-4-fluorobenzoyl)oxy)-6,9-difluoro-11-hydroxy-10,13,16-trimethyl-3-oxo-6,7,8,9,10,11,12,13,14,15,16,17-dodecahydro-3H-cyclopenta[a]phenanthrene-17-carboxylate]	–	–	200	87.3	–	–
